For ten compounds, EC50 and Ki results are on record in patent US8039496B2, “Therapeutic compounds” (Allergan, Inc., priority 2007, dated 2011).

Read-outs that look alike come from different tables or passages of the source. A value given as a limit tells only on which side of the number the result lay.

The target in test [1] is T1, hEP2 (Homo sapiens, UniProt P43116). The test is described as follows: hEP2 flipr functional assay. The class given is cell-based. An excerpt:
(§1) U.S. patent application Ser. No. 11/553,143, filed on Oct. 26, 2006, describes the methods used to obtain the in vitro data in the table below.

Test [2] addresses T2, hDP (Homo sapiens, UniProt Q13258).
T2 sequence (Q13258 1-359): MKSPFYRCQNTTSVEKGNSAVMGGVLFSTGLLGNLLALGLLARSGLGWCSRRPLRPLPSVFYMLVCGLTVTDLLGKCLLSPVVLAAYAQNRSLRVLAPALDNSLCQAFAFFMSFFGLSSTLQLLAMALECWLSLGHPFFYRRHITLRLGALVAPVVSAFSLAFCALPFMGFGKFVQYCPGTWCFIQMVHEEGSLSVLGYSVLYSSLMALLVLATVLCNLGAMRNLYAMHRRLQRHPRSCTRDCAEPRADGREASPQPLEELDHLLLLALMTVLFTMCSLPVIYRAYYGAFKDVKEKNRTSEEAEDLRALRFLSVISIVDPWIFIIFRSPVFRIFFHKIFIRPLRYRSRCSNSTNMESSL
The test is described as follows: Other receptors: hDP. The class given is cell-based.
Description: as §1

The target in test [3] is T3, hEP4 (Homo sapiens, UniProt P35408). In words: hEP4 binding (Ki).
T3 sequence (P35408 whole entry): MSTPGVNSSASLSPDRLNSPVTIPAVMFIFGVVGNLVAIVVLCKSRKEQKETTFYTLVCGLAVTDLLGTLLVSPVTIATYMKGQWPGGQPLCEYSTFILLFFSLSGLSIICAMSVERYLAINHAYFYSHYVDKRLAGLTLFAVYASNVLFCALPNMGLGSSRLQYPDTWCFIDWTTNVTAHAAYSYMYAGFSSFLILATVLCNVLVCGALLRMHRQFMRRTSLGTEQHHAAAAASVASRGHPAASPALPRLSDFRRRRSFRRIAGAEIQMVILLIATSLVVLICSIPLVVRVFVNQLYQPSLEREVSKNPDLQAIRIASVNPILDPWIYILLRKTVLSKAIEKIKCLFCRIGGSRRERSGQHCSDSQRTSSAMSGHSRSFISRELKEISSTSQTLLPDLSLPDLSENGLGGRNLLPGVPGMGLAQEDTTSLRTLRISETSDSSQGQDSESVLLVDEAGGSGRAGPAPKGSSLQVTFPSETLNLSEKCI
Description: as §1

Test [4] concerns the target T1, hEP2. The test is described as follows: hEP2 binding (Ki).
Description: as §1

For test [5], the target named is T1, hEP2. In words: hEP2 cAMP functional assay. Type of test: cell-based.
Description: as §1

Test [6] addresses T4, hEP3 (Homo sapiens, UniProt P43115).
T4 sequence (P43115 1-390): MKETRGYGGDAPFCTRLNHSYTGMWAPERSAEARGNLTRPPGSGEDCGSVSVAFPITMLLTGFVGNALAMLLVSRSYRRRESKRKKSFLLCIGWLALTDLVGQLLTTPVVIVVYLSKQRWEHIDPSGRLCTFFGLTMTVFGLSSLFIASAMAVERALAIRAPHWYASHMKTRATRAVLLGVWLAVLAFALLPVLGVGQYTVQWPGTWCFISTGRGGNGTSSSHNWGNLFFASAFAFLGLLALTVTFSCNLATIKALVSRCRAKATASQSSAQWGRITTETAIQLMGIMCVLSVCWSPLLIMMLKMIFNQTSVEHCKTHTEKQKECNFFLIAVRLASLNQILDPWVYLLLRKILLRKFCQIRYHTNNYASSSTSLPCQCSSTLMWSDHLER
In words: Other receptors: hEP3 / hEP3A. The class given is cell-based.
Description: as §1

Test [7] concerns the target T3, hEP4. In words: hEP4 flipr functional assay. The class given is cell-based.
Description: as §1

Test [8] addresses T5, hEP1 (Homo sapiens, UniProt P34995).
T5 sequence (P34995 1-402): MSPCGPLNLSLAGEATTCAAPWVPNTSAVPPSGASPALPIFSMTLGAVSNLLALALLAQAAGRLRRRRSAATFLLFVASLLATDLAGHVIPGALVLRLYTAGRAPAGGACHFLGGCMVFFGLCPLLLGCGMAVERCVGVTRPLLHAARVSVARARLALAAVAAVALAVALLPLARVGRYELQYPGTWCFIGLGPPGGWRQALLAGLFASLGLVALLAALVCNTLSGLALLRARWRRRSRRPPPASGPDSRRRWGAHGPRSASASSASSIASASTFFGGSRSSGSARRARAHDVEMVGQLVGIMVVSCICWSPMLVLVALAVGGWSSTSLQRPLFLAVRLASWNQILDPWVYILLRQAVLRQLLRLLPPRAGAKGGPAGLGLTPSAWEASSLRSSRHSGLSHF
The test is described as follows: Other receptors: hEP1. Type of test: cell-based.
Description: as §1

For test [9], the target named is T6, hTP (Homo sapiens, UniProt P21731).
T6 sequence (P21731 1-343): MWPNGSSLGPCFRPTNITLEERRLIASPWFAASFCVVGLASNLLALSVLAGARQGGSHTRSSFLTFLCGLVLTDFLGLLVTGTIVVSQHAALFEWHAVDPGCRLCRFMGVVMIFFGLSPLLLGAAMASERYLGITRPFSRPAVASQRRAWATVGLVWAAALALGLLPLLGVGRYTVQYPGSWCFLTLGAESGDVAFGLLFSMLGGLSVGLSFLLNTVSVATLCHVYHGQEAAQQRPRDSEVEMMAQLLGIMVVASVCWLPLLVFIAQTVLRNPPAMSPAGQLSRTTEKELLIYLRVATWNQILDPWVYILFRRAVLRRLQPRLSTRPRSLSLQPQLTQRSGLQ
The test is described as follows: Other receptors: hTP. The class given is cell-based. The following applies: the 2nd table.
Description: as §1

Setting [10] is: the 3rd table, read-out: EP2 data flipr EC50.
Where [11] appears, read: the 3rd table, read-out: Other Receptors (ED50 in nM) hDP.
The mark [12] stands for this setting: the 3rd table, read-out: EP4 data KI.
Where [13] appears, read: the 3rd table, read-out: EP2 data Ki.
The mark [14] stands for this setting: the 3rd table, read-out: EP2 data cAMP EC50.
Setting [15] is: the 3rd table, read-out: Other Receptors (ED50 in nM) hEP3A.
[16] abbreviates: the 3rd table, read-out: EP4 data flipr EC50.
[17] abbreviates: the 3rd table, read-out: Other Receptors (ED50 in nM) hEP1.
Setting [18] is: the 2nd table, read-out: hEP2 flipr EC50.
[19] abbreviates: the 2nd table, read-out: hEP2 Ki.
Setting [20] is: the 2nd table, read-out: hEP2 cAMP EC50.
[21] abbreviates: the 2nd table, read-out: Other Receptors hEP3.

T1 sequence (P43116 whole entry): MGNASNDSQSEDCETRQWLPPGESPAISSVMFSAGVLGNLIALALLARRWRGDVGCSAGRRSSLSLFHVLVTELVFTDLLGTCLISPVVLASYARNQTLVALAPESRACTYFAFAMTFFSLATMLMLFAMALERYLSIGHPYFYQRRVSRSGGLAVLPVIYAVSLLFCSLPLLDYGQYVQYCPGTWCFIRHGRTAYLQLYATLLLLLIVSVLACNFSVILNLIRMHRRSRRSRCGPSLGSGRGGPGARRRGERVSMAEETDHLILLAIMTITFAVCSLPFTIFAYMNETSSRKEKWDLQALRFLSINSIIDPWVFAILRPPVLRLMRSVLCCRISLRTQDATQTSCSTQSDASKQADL

Take `O=C(O)c1ccc(CCC[C@@H]2[C@@H](COc3cccc4ccccc34)[C@H](O)C[C@H]2Cl)s1` [5-(3-((1R,2S,3R,5R)-5-chloro-3-hydroxy-2-((naphthalen-1-yloxy)methyl)cyclopentyl)propyl)thiophene-2-carboxylic acid]: the EC50 was 949 nM in [1] (setting [10]); 4150 nM in test [2] (setting [11]); 0.7 nM in test [5] (setting [14]); 4030 nM in [6] (setting [15]); above 10000 nM in [7] (setting [16]). Moreover, the Ki came to 114 nM in test [3] (setting [12]) and 5.5 nM in test [4] (setting [13]).

On to `O=C(O)c1ccc(CCC[C@@H]2[C@@H](COc3ccccc3)[C@H](O)C[C@H]2Cl)s1` [5-(3-((1R,2S,3R,5R)-5-chloro-3-hydroxy-2-(phenoxymethyl)cyclopentyl)propyl)thiophene-2-carboxylic acid], for which the EC50 in test [1] (setting [10]) worked out at 235 nM; in test [2] (setting [11]), 9090 nM; in test [5] (setting [14]), 3.4 nM; in test [6] (setting [15]), 9650 nM; in test [7] (setting [16]) it was 8420 nM. Also, the inhibition constant Ki in test [3] (setting [12]) was found to be 2320 nM; in [4] (setting [13]), 29 nM.

Take `O=C(O)c1ccc(CCC[C@@H]2[C@@H](COc3ccc(Cl)c4ccccc34)[C@H](O)C[C@H]2Cl)s1` [5-(3-((1R,2S,3R,5R)-5-chloro-2-((4-chloronaphthalen-1-yloxy)methyl)-3-hydroxycyclopentyl)propyl)thiophene-2-carboxylic acid]: the EC50 in test [1] (setting [10]) amounted to 3530 nM; in [2] (setting [11]), 13500 nM; in [5] (setting [14]), 2.5 nM; in test [7] (setting [16]), 15000 nM. Moreover, the inhibitory constant (Ki) was 1930 nM in [3] (setting [12]) and 10 nM in test [4] (setting [13]).

On to `Cc1cc(OC[C@@H]2[C@@H](CCCc3ccc(C(=O)O)s3)[C@H](Cl)C[C@H]2O)cc(C)c1Cl` [5-(3-((1R,2S,3R,5R)-5-chloro-2-((4-chloro-3,5-dimethylphenoxy)methyl)-3-hydroxycyclopentyl)propyl)thiophene-2-carboxylic acid], for which the EC50 in test [1] (setting [10]) is 1490 nM; in [2] (setting [11]), 7190 nM; in [5] (setting [14]), 0.2 nM; in test [7] (setting [16]) it was above 10000 nM. Moreover, the Ki in [3] (setting [12]) was found to be 170 nM; in test [4] (setting [13]), 0.7 nM.

In the case of `CCc1cccc(OC[C@@H]2[C@@H](CCCc3ccc(C(=O)O)s3)[C@H](Cl)C[C@H]2O)c1` [5-(3-((1R,2S,3R,5R)-5-chloro-2-((3-ethylphenoxy)methyl)-3-hydroxycyclopentyl)propyl)thiophene-2-carboxylic acid], the EC50 in test [1] (setting [10]) turned out to be 447 nM; in test [2] (setting [11]), 4440 nM; in test [5] (setting [14]), 0.4 nM; in test [6] (setting [15]), 3570 nM; in [7] (setting [16]) it was 6740 nM; in test [8] (setting [17]) it was 31500 nM. Also, the Ki in test [3] (setting [12]) came out at 214 nM; in test [4] (setting [13]), 4 nM.

As to `O=C(O)c1ccc(CCC[C@@H]2[C@@H](COc3cc(F)cc(F)c3)[C@H](O)C[C@H]2Cl)s1` [5-(3-((1R,2S,3R,5R)-5-chloro-2-((3,5-difluorophenoxy)methyl)-3-hydroxycyclopentyl)propyl)thiophene-2-carboxylic acid], the EC50 is 216 nM in test [1] (setting [10]); 12100 nM in test [2] (setting [11]); 0.3 nM in test [5] (setting [14]); 4140 nM in test [6] (setting [15]); 5290 nM in test [7] (setting [16]). The Ki was 1280 nM in [3] (setting [12]) and 3 nM in [4] (setting [13]).

`CCCc1cccc(OC[C@@H]2[C@@H](CCCc3ccc(C(=O)O)s3)[C@H](Cl)C[C@H]2O)c1` [5-(3-((1R,2S,3R,5R)-5-chloro-3-hydroxy-2-((3-propylphenoxy)methyl)cyclopentyl)propyl)thiophene-2-carboxylic acid]: the EC50 in [1] (setting [10]) was 33 nM; in test [5] (setting [14]), 0.4 nM; in [6] (setting [15]) it was 6520 nM; in test [7] (setting [16]), above 10000 nM; in test [8] (setting [17]), 17900 nM. For the same compound, the Ki in test [3] (setting [12]) came out at 471 nM; in test [4] (setting [13]) it was 6 nM.

`O=C(O)c1ccc(CCC[C@@H]2[C@@H](COc3cccc4c3CCCC4)[C@H](O)C[C@H]2Cl)s1` [5-(3-((1R,2S,3R,5R)-5-chloro-3-hydroxy-2-((5,6,7,8-tetrahydronaphthalen-1-yloxy)methyl)cyclopentyl)propyl)thiophene-2-carboxylic acid]: the EC50 was found to be 175 nM in test [1] (setting [10]); 8620 nM in test [2] (setting [11]); 2.5 nM in test [5] (setting [14]); 5790 nM in test [6] (setting [15]); 9830 nM in [7] (setting [16]). Moreover, the figures for the Ki in test [3] (setting [12]) and in test [4] (setting [13]) were 1460 nM and 37 nM, respectively.

As to `COCc1cc(Cl)cc(OC[C@@H]2[C@@H](C/C=C\CCCC(=O)O)[C@H](Cl)C[C@H]2O)c1` [(Z)-7-[(1R,2S,3R,5R)-5-Chloro-2-(3-chloro-5-methoxymethyl-phenoxymethyl)-3-hydroxy-cyclopentyl]-hept-5-enoic acid], the EC50 was 3410 nM in [1] (setting [18]); above 10000 nM in [9]; 8 nM in test [5] (setting [20]); 7210 nM in [6] (setting [21]); 4820 nM in test [7] (the 2nd table, read-out: hEP4 flipr EC50); 5180 nM in [8] (the 2nd table, read-out: Other Receptors hEP1). The inhibitory constant (Ki) in test [3] (the 2nd table, read-out: hEP4 Ki) was 1450 nM; in test [4] (setting [19]), 39 nM.

`O=C(O)CCC/C=C\C[C@@H]1[C@@H](COc2cc(Cl)cc(CCO)c2)[C@H](O)C[C@H]1Cl` [(Z)-7-{(1R,2S,3R,5R)-5-Chloro-2-[3-chloro-5-(2-hydroxyethyl)-phenoxymethyl]-3-hydroxy-cyclopentyl}-hept-5-enoic acid]: the EC50 in [1] (setting [18]) is 644 nM; in test [2] (the 2nd table, read-out: Other Receptors hDP), above 10000 nM; in test [9] it was above 10000 nM; in [5] (setting [20]), 7 nM; in test [6] (setting [21]) it was 8830 nM. Besides, in [4] (setting [19]), the inhibitory constant (Ki) worked out at 107 nM.

The Ki is a measure of affinity in units of concentration, obtained from inhibition or displacement.
